Data from the supplement of paper PMC10307832.

Legend:
Assay in all cases: relative viability (nuclei count vs DMSO), 5 days (fraction); higher = more cells survive
[1] = compound: C1=CC=C(C(=C1)C2=CC=C(C=C2)C3=CSC4=C3C(=C(C(=O)N4)C#N)O)O + CS(=O)(=O)CCNCc1ccc(-c2ccc3ncnc(Nc4ccc(OCc5cccc(F)c5)c(Cl)c4)c3c2)o1 [Lapatinib] (partner 2 µM)
How it was run: (§1)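 A single step with final 0.05% Triton X-100, 1% formaldehyde and 1 ug/ml Hoechst fixed the cells and stained nuclei 5 days after treatment. Lung cancer cell lines in 1536-well plates had been treated by pin tool the day after seeding with one drug alone or a fixed anchor-drug dose plus five library-drug doses (not always all listed) in √10 steps, and nuclei were counted on 4× images. Relative viability is the ratio of nuclei in treated wells to nuclei in vehicle wells, taken as the median of duplicate plates.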

[2] = compound: O=C(CCCCCCNC(=O)c1cnc(N(c2ccccc2)c2ccccc2)nc1)NO [Ricolinostat] + COc1cccc2cc(-c3nc([C@H]4CC[C@H](C(=O)O)CC4)n4ncnc(N)c34)[nH]c12 [OSI-027] (partner 0.5 µM)
How it was run: as §1

[3] = compound: CC1=CN2C(=O)C=C(N=C2C(=C1)C(C)NC3=CC=CC=C3)N4CCOCC4 [TGX 221] + CC1(C)CCC(c2ccc(Cl)cc2)=C(CN2CCN(c3ccc(C(=O)NS(=O)(=O)c4ccc(N[C@H](CCN5CCOCC5)CSc5ccccc5)c(S(=O)(=O)C(F)(F)F)c4)cc3)CC2)C1 [Navitoclax] (partner 0.5 µM)
How it was run: as §1

[4] = compound: C1=CC=C(C(=C1)C2=CC=C(C=C2)C3=CSC4=C3C(=C(C(=O)N4)C#N)O)O + CCNC(=O)c1noc(-c2cc(C(C)C)c(O)cc2O)c1-c1ccc(CN2CCOCC2)cc1 [Luminespib] (partner 0.01 µM)
How it was run: as §1

Cell Line	relative viability ([1]; first compound 0.08 µM)	relative viability ([1]; first compound 0.253 µM)	relative viability ([1]; first compound 0.8 µM)	relative viability ([1]; first compound 2.53 µM)	relative viability ([1]; first compound 8 µM)	relative viability ([2]; first compound 0.08 µM)	relative viability ([2]; first compound 0.253 µM)	relative viability ([2]; first compound 0.8 µM)	relative viability ([2]; first compound 2.53 µM)	relative viability ([3]; first compound 0.08 µM)	relative viability ([3]; first compound 0.253 µM)	relative viability ([3]; first compound 0.8 µM)	relative viability ([3]; first compound 2.53 µM)	relative viability ([3]; first compound 8 µM)	relative viability ([4]; first compound 0.08 µM)	relative viability ([4]; first compound 0.253 µM)	relative viability ([4]; first compound 0.8 µM)	relative viability ([4]; first compound 2.53 µM)	relative viability ([4]; first compound 8 µM)
NCI-H2405	1.01	1.12	1.11	0.984	1.04	0.481	0.71	0.671	0.568	0.701	0.815	0.804	0.668	0.636	0.723	0.855	0.675	0.604	0.567
NCI-H3122	1.05	1.17	1.06	1.06	1.02	–	0.992	0.99	1.06	1.09	1.03	1.02	1.09	1.01	0.106	0.0689	0.0946	0.105	0.0854
PC-3 [JPC-3]	0.488	0.556	0.479	0.441	0.472	–	0.768	0.708	0.491	0.722	0.768	0.847	0.806	0.863	0.564	0.774	0.787	0.679	0.74
PC-14	0.287	0.38	0.3	0.256	0.269	0.728	0.72	0.769	0.511	0.951	1	0.961	1.01	0.926	–	0.185	0.105	0.162	0.142
RERF-LC-KJ	0.787	0.883	0.884	0.833	0.848	0.578	0.569	0.47	0.438	–	0.78	0.913	0.8	1.14	1.34	1.37	1.44	1.17	0.843
SK-LU-1	0.977	1.1	0.685	1.05	0.682	0.321	0.431	0.353	0.269	0.392	0.84	0.726	0.786	0.772	0.195	0.217	0.217	0.175	0.218
SK-MES-1	0.435	0.51	0.441	0.457	0.463	0.407	0.561	0.534	0.558	1.17	1.05	1.13	1.05	0.996	0.766	0.822	0.763	0.622	0.633
SW 1573	0.991	1.12	1.21	1.11	0.862	0.588	0.612	0.647	0.501	0.814	0.811	0.926	0.821	0.753	0.192	0.105	0.147	0.219	0.275
UMC-11	0.745	0.871	0.941	1	0.858	0.406	0.517	0.487	0.235	0.352	0.304	0.337	0.283	0.259	0.764	1.04	1.03	1.06	0.839
